According to US20140107170A1, “COMPOSITION COMPRISING ANGIOTENSIN II RECEPTOR ANTAGONIST AND ANTIOXIDANT FOR MAINTAINING AND/OR IMPROVING SKIN PROPERTIES” (priority 2011, published 2014):

System: Dermal fibroblast cells
Assay: Dermal fibroblast survival under oxidative stress (H2O2), MTS viability test, Example 3
Type: cell-based
Conditions: preincubation till the next day, H2O2 (1 mmol) 15 minutes, MTS after 24 hours, valsartan 1.0 μmol, vitamin A 1 μmol, vitamin C 100 μmol, vitamin E 10 μmol
Description: Dermal fibroblast cells were grown in Advanced MEM supplemented with antibiotics (penicillin-streptomycin), 5% fetal bovine serum and L-glutamine (2 mmol/l) at 37° C. in a CO2 incubator (5% CO2, 95% air, 95% relative humidity. Cells were detached with Tryple™select. For experiments the cells were seeded in 96-well microtitre plates at a density 5×10^3 cells/well (5×10^4 cells/ml). Two hours after seeding, when the cells attached to the surface, the medium was replaced with the medium supplemented with vitamins (ACE), valsartan or their combination. The cells were incubated till the next day and then treated with H2O2 (1 mmol) for 15 minutes. After the treatment with H2O2 the cells were washed three times with PBS and than incubated in medium for 24 hours. Then the MTS viability test was performed.

CCCCC(=O)N(Cc1ccc(-c2ccccc2-c2nnn[nH]2)cc1)[C@H](C(=O)O)C(C)C [Valsartan, valsartan]
% of survival after treatment with H2O2: 79% | % of survival after treatment with H2O2 (listed as valsartan): 79%
